Measured values published in patent publication US20250154169A1, “COMPOUNDS AND METHODS FOR MODULATING SPLICING” (REMIX THERAPEUTICS INC., priority 2021, published 2025).
Read-outs that look alike come from different tables or passages of the source.

How the values were obtained:
Type in all cases: cell-based, human
[1] = tested on: Target C mRNA; assay: Splicing RT-qPCR gene panel, Target C canonical junction (CJ) mRNA; settings: Tables 4A/4B, read-out: Target C (IC50, decrease in CJ mRNA, gene panel)
Procedure: (§1) Compounds described herein were used to modulate RNA transcript abundance in cells. The expression of a target mRNA was measured by detecting the formation of an exon-exon junction in the canonical transcript (CJ). A compound mediated exon-inclusion event was detected by observing an increase in formation of a new junction with an alternative exon (AJ). Real-time qPCR assays were used to detect these splicing switches and interrogate the potency of various compounds towards different target genes. A high-throughput real time quantitative PCR (RT-qPCR) assay was developed to measure these two isoforms of the mRNA (CJ and AJ) for exemplary genes, such as HTT, SMN2, and MYB, together with a control housekeeping gene, GAPDH or GUSB or PPIA, used for normalization. Briefly, the A673 or K562 cell line was treated with various compounds described herein (e.g., compounds of Formula (I)). After treatment, the levels of the HTT, MYB, or SMN2 mRNA targets were determined from each sample of cell lysate by cDNA synthesis followed by qPCR.
(§2) The A673 cell line was cultured in DMEM with 10% FBS. Cells were diluted with full growth media and plated in a 96-well plate (15,000 cells in 100 ul media per well). The plate was incubated at 37° C. with 5% CO2 for 24 hours to allow cells to adhere. An 11-point 3-fold serial dilution of the compounds was made in DMSO then diluted in media in an intermediate plate. Compounds were transferred from the intermediate plate to the cell plate with the top dose at a final concentration of 10 uM in the well. Final DMSO concentration was kept at or below 0.25%. The cell plate was returned to the incubator at 37° C. with 5% CO2 for an additional 24 hours.
(§3) The K562 cell line was cultured in IMDM with 10% FBS. For K562, cells were diluted with full growth media and plated in either a 96-well plate (50,000 cells in 50 uL media per well) or a 384-well plate (8,000-40,000 cells in 45 uL media per well). An 11-point 3-fold serial dilution of the compounds were made in DMSO then diluted in media in an intermediate plate. Compound was transferred from the intermediate plate to the cell plate with the top dose at a final concentration of 10 uM in the well. Final DMSO concentration was kept at or below 0.25%. Final volume was 100 uL for 96-well plate and 50 uL for 384-well plate. The cell plate was then placed in an incubator at 37° C. with 5% CO2 for 24 hours.
(§4) The cells were then gently washed with 50 uL-100 uL cold PBS before proceeding to addition of lysis buffer. 30 uL-50 uL of room temperature lysis buffer with DNAse I (and optionally RNAsin) was added to each well. Cells were shaken/mixed thoroughly at room temperature for 5-10 minutes for lysis to take place and then 3 uL-5 uL of room temperature stop solution was added and wells were shaken/mixed again. After 2-5 minutes, the cell lysate plate was transferred to ice for RT-qPCR reaction setup. The lysates could also be frozen at −80° C. for later use.
(§5) In some cases, a direct lysis buffer was used. An appropriate volume of 3× lysis buffer (10 mM Tris, 150 mM NaCl, 1.5%-2.5% Igepal and 0.1-1 U/uL RNAsin, pH 7.4) was directly added to either K562 or A673 cells in media and mixed by pipetting 3 times. The plates were then incubated at room temperature with shaking/rocking for 20-50 minutes to allow for lysis to take place. After this time, the cell lysate plate was transferred to ice to set up for the RT-qPCR reactions. The lysates could also be frozen at −80° C. for later use.
(§6) To set up 10 uL RT-qPCR reactions, cell lysates were transferred to 384-well qPCR plates containing the master mix according to the table below. The plates were sealed, gently vortexed, and spun down before the run. The volumes were adjusted accordingly in some instances where the reaction was carried in 20 μL. The table below summarizes the components of the RT-qPCR reactions:
(§7) The RT-qPCR reaction was performed using a QuantStudio (ThermoFisher) under the following fast cycling conditions. […]

[2] = tested on: MYB mRNA; assay: Splicing RT-qPCR assay, MYB canonical (CJ) and alternative (AJ) junction mRNA; settings: for AC50: read-out: MYB AJ (AC50, increase in alternative junction mRNA)
Method in brief: (§8)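 Compound-induced exon inclusion is tracked as an increase in AJ transcript alongside the CJ transcript. Cells (A673 normalized to PPIA; K562 to GAPDH or GUSB) are dosed 24 h with a serial dilution topping at 10 uM, ≤0.25% DMSO, then lysed and analysed by RT-qPCR in at least duplicate.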

[3] = tested on: SMN2 mRNA; assay: Splicing RT-qPCR gene panel, SMN2 canonical junction (CJ) mRNA; settings: Tables 4A/4B, read-out: SMN2 (IC50, decrease in CJ mRNA, gene panel)
Procedure: as §1, §2, §3, §4, §5, §6, §7

[4] = tested on: HTT mRNA; assay: Splicing RT-qPCR gene panel, HTT canonical junction (CJ) mRNA; settings: Tables 4A/4B, read-out: HTT (IC50, decrease in CJ mRNA, gene panel)
Procedure: as §1, §2, §3, §4, §5, §6, §7

[5] = tested on: HTT mRNA; assay: Splicing RT-qPCR assay, HTT canonical (CJ) and alternative (AJ) junction mRNA; settings: Homo sapiens, A673 or K562 cells, 24 hours compound treatment; for IC50: 24 h, read-out: HTT CJ (IC50, decrease in canonical junction mRNA); for AC50: read-out: HTT AJ (AC50, increase in alternative junction mRNA)
Method in brief: as §8

[6] = Homo sapiens, Tables 4A/4B, canonical junction qPCR panel, read-out: MYB (IC50, decrease in CJ mRNA, gene panel)
[7] = Homo sapiens, 24 h, A673 or K562 cells, 24 hours compound treatment, RT-qPCR
[8] = Homo sapiens, 24 h, A673 or K562 cells, 24 hours compound treatment, RT-qPCR, read-out: MYB CJ (IC50, decrease in canonical junction mRNA)

IC50 ([1]; Homo sapiens) [nM] | IC50 [2, 6] [nM] | IC50 ([3]; Homo sapiens) [nM] | IC50 ([4]; Homo sapiens) [nM] | SMILES | also measured
> 10000 | < 100 | < 100 | 1000 to 10000 | Cc1cn2cc(NC(=O)c3ccc(N4CC[C@H](NC5(CF)CC5)C4)c4cn(C)nc34)cc(F)c2n1 (single isomer, unassigned) [Compound 449] | 
100 to 1000 | < 100 | < 100 | 100 to 1000 | CCNC1CCN(c2ccc(C(=O)Nc3cc(F)c4nc(C)cn4c3)c3nn(C)cc23)CC1 [Compound 252] | 
1000 to 10000 | < 100 | < 100 | 100 to 1000 | Cc1cn2cc(NC(=O)c3ccc(N4CCNC(C)C4)c4cn(C)nc34)cc(Cl)c2n1 (centres unmarked) [Compound 277] | 
1000 to 10000 | < 100 | < 100 | 1000 to 10000 | CCn1cc2c(N3CCNCC3)ccc(C(=O)Nc3cc(Cl)c4nc(C)cn4c3)c2n1 [Compound 284] | 
1000 to 10000 | < 100 | < 100 | 1000 to 10000 | CCn1cc2c(N3CCNCC3)ccc(C(=O)Nc3cc(F)c4nc(C)cn4c3)c2n1 [Compound 288, 2-ethyl-N-{8-fluoro-2-methylimidazo[1,2-a]pyridin-6-yl}-4-(piperazin-1-yl)indazole-7-carboxamide] | 
< 100 | < 100 | < 100 | < 100 | Cc1cn2cc(NC(=O)c3c(F)cc(N4CCNCC4)c4cn(C)nc34)cc(F)c2n1 [Compound 361, 6-fluoro-N-{8-fluoro-2-methylimidazo[1,2-a]pyridin-6-yl}-2-methyl-4-(piperazin-1-yl) indazole-7-carboxamide] | 
< 100 | < 100 | < 100 | < 100 | C=Cn1cc2c(N3CCNCC3)ccc(C(=O)Nc3cc(F)c4nc(C)cn4c3)c2n1 [Compound 363, 2-ethenyl-N-{8-fluoro-2-methylimidazo[1,2-a]pyridin-6-yl}-4-(piperazin-1-yl) indazole-7-carboxamide] | 

More lines, now with the values behind:

SMILES | IC50 ([1]; Homo sapiens) [nM] | IC50 [2, 6] [nM] | IC50 ([3]; Homo sapiens) [nM] | IC50 ([4]; Homo sapiens) [nM] | also measured
Cc1cn2cc(NC(=O)c3ccc(N4CCC(NC(C)(C)C)C4)c4cc(C)oc34)cc(F)c2n1 (centres unmarked) [Compound 203] | > 10000 | 100 to 1000 | < 100 | > 10000 | 
Cc1cn2cc(NC(=O)c3ccc(N4CCN(C)CC4)c4cn(C)nc34)cc(F)c2n1 [Compound 207] | 1000 to 10000 | < 100 | < 100 | 100 to 1000 | 
Cc1cn2cc(NC(=O)c3ccc(C4C[C@@H](C)N[C@@H](C)C4)c4cn(C)nc34)cc(F)c2n1 (some centres unmarked) [Compound 211] | 1000 to 10000 | 100 to 1000 | < 100 | 1000 to 10000 | 
Cc1cc2c(N3CCNCC3)ccc(C(=O)Nc3cc(F)c4nc(C)oc4c3)c2o1 [Compound 218] | 1000 to 10000 | 100 to 1000 | < 100 | 1000 to 10000 | 
Cc1cn2cc(NC(=O)c3ccc(N4CCNC(C)C4)c4cn(C)nc34)cc(F)c2n1 (centres unmarked) [Compound 228] | 100 to 1000 | < 100 | < 100 | 100 to 1000 | 
Cc1nc2c(F)cc(NC(=O)c3ccc(N4CCNCC4)c4cn(C)nc34)cc2o1 [Compound 234] | 1000 to 10000 | < 100 | < 100 | 1000 to 10000 | 
Cc1cn2cc(NC(=O)c3ccc(N4CCNC5(CC5)C4)c4cn(C)nc34)cc(F)c2n1 [Compound 241] | 1000 to 10000 | 100 to 1000 | < 100 | 100 to 1000 | 
Cc1cn2cc(NC(=O)c3ccc(N4CCN5CCCC5C4)c4cn(C)nc34)cc(F)c2n1 (centres unmarked) [Compound 250] | 100 to 1000 | < 100 | < 100 | < 100 | 
Cc1cn2cc(NC(=O)c3ccc(N4CCC(N(C)C)CC4)c4cn(C)nc34)cc(F)c2n1 [Compound 251] | 1000 to 10000 | < 100 | < 100 | 100 to 1000 | 
Cc1cn2cc(NC(=O)c3ccc(N4C[C@H]5CC[C@@H](C4)N5)c4cn(C)nc34)cc(Cl)c2n1 [Compound 279] | 1000 to 10000 | < 100 | < 100 | 1000 to 10000 | 
Cc1cn2cc(NC(=O)c3ccc(N4CCNCC4)c4cn(C)nc34)cc(Cl)c2n1 [Compound 285] |  |  |  |  | IC50 [1]: 100 to 1000 nM; IC50 ([2]; Tables 4A/4B, canonical junction qPCR panel, read-out: MYB (IC50, decrease in CJ mRNA, gene panel)): < 100 nM; IC50 [3]: < 100 nM; IC50 [4]: 100 to 1000 nM
CN[C@@H]1CCN(c2ccc(C(=O)Nc3nc(OC)c4nc(C)cn4c3F)c3nn(C)cc23)C1 [Compound 651] |  |  |  |  | AC50 [2, 7]: > 10000 nM; IC50 [2, 8]: > 10000 nM; IC50 [5]: > 10000 nM; AC50 [5]: > 10000 nM
CCn1cc2c(N3CC[C@@H](NC)C3)cc(OC)c(C(=O)Nc3cc(F)c4nc(C)cn4c3)c2n1 [Compound 653] |  |  |  |  | AC50 [2, 7]: > 10000 nM; IC50 [2, 8]: > 10000 nM; IC50 [5]: > 10000 nM; AC50 [5]: > 10000 nM
